# According to patent US20250082761A1, “DUAL-TARGETED RNA POLYMERASE INHIBITORS: CONJUGATES OF BENZOXAZINO- AND SPIRO-RIFAMYCINS WITH N ALPHA-AROYL-N-ARYL-[…]” (priority 2021, published 2025):
# Assays:
# [1] = tested on: Mycobacterium tuberculosis H37Rv; test: microbe, parasite or virus in culture; format: cell-based; conditions: read-out: antibacterial activity M. tuberculosis H37Rv MIC
# [2] = tested on: Mycobacterium avium ATCC 25291; test: Microplate Alamar Blue MIC assay, M. avium; format: cell-based; conditions: unit not given
# [3] = tested on: Mycobacterium abscessus IDR-1400012185; format: cell-based; parameters: unit not given here
# CYP3A4 = test: in vitro; conditions: male, human, hepatocytes
SMILES,MIC [1] [mg/L],antibacterial activity M. avium ATCC 25291 [2],antibacterial activity M. abscessus IDR-1400012185 [3],IC50 (CYP3A4) [µM]
"[2H]C([2H])(c1ccccc1)[C@@H](NC(=O)c1ccccc1F)C(=O)Nc1cc(F)ccc1N1CCN(c2cc(O)c3nc4c5c6c7c(C)c(O)c5c(=O)c(c-4oc3c2)NC(=O)/C(C)=C\C=C\[C@H](C)[C@H](O)[C@@H](C)[C@@H](O)[C@@H](C)[C@H](OC(C)=O)[C@H](C)[C@@H](OC)/C=C/O[C@@](C)(O7)C6=O)CC1 [IX-511a, 3'-hydroxy-benzoxazinorifamycin S-(IX-370a) conjugate]",0.002,0.024,1.56,10
"[2H]C([2H])(c1ccccc1)[C@@H](NC(=O)c1ccccc1F)C(=O)Nc1cc(F)ccc1N1CCN(c2cc(O)c3nc4c5c6c7c(C)c(O)c5c(=O)c(c-4oc3c2)NC(=O)/C(C)=C\C=C\[C@H](C)[C@H](O)[C@@H](C)[C@@H](O)[C@@H](C)[C@H](O)[C@H](C)[C@@H](OC)/C=C/O[C@@](C)(O7)C6=O)CC1 [IX-519a, desacetyl-3′-hydroxy-benzoxazinorifamycin S-(IX-370a) conjugate]",0.024,–,–,–
"CO[C@H]1/C=C/O[C@@]2(C)Oc3c(C)c(O)c4c(O)c(c(/C=N/N5CCN(C)CC5)c(O)c4c3C2=O)NC(=O)/C(C)=C\C=C\[C@H](C)[C@H](O)[C@@H](C)[C@@H](O)[C@@H](C)[C@H](OC(C)=O)[C@@H]1C [rifampin, reference compound]",0.063,0.024,1.56,–
"[2H]C([2H])(c1ccccc1)[C@@H](NC(=O)c1ccccc1F)C(=O)Nc1cc(F)ccc1N1CCN(c2ccc3nc4c5c6c7c(C)c(O)c5c(=O)c(c-4oc3c2)NC(=O)/C(C)=C\C=C\[C@H](C)[C@H](O)[C@@H](C)[C@@H](O)[C@@H](C)[C@H](OC(C)=O)[C@H](C)[C@@H](OC)/C=C/O[C@@](C)(O7)C6=O)CC1 [IX-516a, benzoxazinorifamycin S-(IX-370a) conjugate]",0.031,–,3.13,10
"[2H]C([2H])(c1ccccc1)C(NC(=O)c1ccccc1F)C(=O)Nc1cc(F)ccc1N1CCC2(CC1)N=C1C(=C3NC(=O)/C(C)=C\C=C\[C@H](C)[C@H](O)[C@@H](C)[C@@H](O)[C@@H](C)[C@H](OC(C)=O)[C@H](C)[C@@H](OC)/C=C/O[C@]4(C)Oc5c(C)c(O)c(c1c5C4=O)C3=O)N2 (stereo partly drawn) [IX-515, spirorifamycin S-(IX-513) conjugate]",0.031,0.78,6.25,> 10
